Converted amounts (≈) assume the structure as drawn. Like-named read-outs stand apart in the source and are kept apart here.
Legend:
α-glucosidase = details: cited from earlier work
[1] = DPPH radical scavenging activity assay; details: methanolic aerial parts extracts (Soxhlet); 30 min
Protocol: Antiradical activity was assessed using the free radical 2,2-diphenyl-1-picrylhydrazyl (DPPH) according to the previously described procedure. Methanolic stock solution of DPPH (0.1 mM) was dissolved to obtain absorbance of 0.70 ± 0.02. In 2 mL of prepared solution, 10 µL sample was added. After 30 min incubation, absorbance was measured at 517 nm with methanol used as blank. Results are expressed as concentrations observed to reduce the DPPH radical absorbance by 50% (IC50).

[2] = test system: CAMA-1 breast cancer cells; set-up: method as in doi:10.4314/tjpr.v17i9.4; details: cited from earlier work
[3] = test system: Bacillus cereus ATCC 11778; assay: Well diffusion method; format: cell-based; details: aerial parts extracts c = 50 mg/mL; antibiotics c = 0.2 mg/mL; n.d. = growth inhibition not detected
Protocol: (§1) Antibacterial activity was evaluated using the following strains: Bacillus cereus American Type Culture Collection (ATCC, Manassas, VA, USA) 11778, B. subtilis ATCC 6633, Enterococcus faecalis ATCC 29212, Staphylococcus aureus ATCC 6538 and S. aureus ATCC 29213 among Gram-positive and Escherichia coli ATCC 10536, Klebsiella pneumoniae MFBF 10402 and Pseudomonas aeruginosa ATCC 27853 among Gram-negative bacterial species. Additionally, eight clinical isolates of S. aureus, including methicillin-resistant S. aureus (MRSA MFB F101, MRSA MFBF 124, MRSA MFBF 154, MRSA MFBF 164, and MRSA MFBF 177) and methicillin susceptible S. aureus (S. aureus MFBF 505, S. aureus MFBF 10661 and S. aureus MFBF 10666) were used. Bacterial strains were sourced from the Collection of Microorganisms, Department of Microbiology, Faculty of Pharmacy and Biochemistry, University of Zagreb. Inoculums were prepared from overnight cultures that were cultured on tryptic soy agar (TSA) at 37 °C, suspended in sterile physiological saline, with the optic density adjusted to 0.5 McFarland (1.5 × 10^8 colony-forming units (CFUs)/mL) using a densitometer (Densimat, BioMérieux, Marcy-l’Étoile, France). Right before cultivation in nutrient medium, 1 mL of each prepared suspension was dissolved with 9 mL physiological saline. Prior to cell treatment, sample stock solutions in distilled water (c = 50 mg/mL) were filtered through Chromafil cellulose acetate filters of pore size 0.22 μm (Macherey-Nagel, Düren, Germany).
(§2) Well diffusion method was carried out according to the European Pharmacopoeia. Inoculums (100 μL) were transferred to individual petri dishes with 4 mm thick Müller–Hinton agar and equally distributed across agar surface with a glass L-stick. Wells were prepared using sterile stainless-steel cylinders (d = 6 mm) and filled with 50 μL of methanolic aerial parts extract solution (c = 50 mg/mL) in distilled water. Plates were incubated at 37 °C for 18 h in the dark. Diameters of the zones of inhibition of bacterial growth (mm) were read from the diameters of transparent zones around the wells. Gentamicin and norfloxacin (c = 0.2 mg/mL) were used as positive controls.

[4] = test system: Enterococcus faecalis ATCC 29212; assay: Well diffusion method; format: cell-based; details: aerial parts extracts c = 50 mg/mL; antibiotics c = 0.2 mg/mL; n.d. = growth inhibition not detected
Protocol: as §1, §2

[5] = test system: Klebsiella pneumoniae MFBF 10402; assay: Well diffusion method; format: cell-based; details: aerial parts extracts c = 50 mg/mL; antibiotics c = 0.2 mg/mL; n.d. = growth inhibition not detected
Protocol: as §1, §2

[6] = test system: Staphylococcus aureus ATCC 6538; assay: Well diffusion method; format: cell-based; details: aerial parts extracts c = 50 mg/mL; antibiotics c = 0.2 mg/mL
Protocol: as §1, §2

[7] = test system: Pseudomonas aeruginosa ATCC 27853; assay: Well diffusion method; format: cell-based; details: aerial parts extracts c = 50 mg/mL; antibiotics c = 0.2 mg/mL; n.d. = growth inhibition not detected
Protocol: as §1, §2

[8] = test system: Bacillus subtilis ATCC 6633; assay: Well diffusion method; format: cell-based; details: aerial parts extracts c = 50 mg/mL; antibiotics c = 0.2 mg/mL; n.d. = growth inhibition not detected
Protocol: as §1, §2

[9] = test system: Escherichia coli ATCC 10536; assay: Well diffusion method; format: cell-based; details: aerial parts extracts c = 50 mg/mL; antibiotics c = 0.2 mg/mL; n.d. = growth inhibition not detected
Protocol: as §1, §2

[10] = read-out: DPPH radical scavenging capacity IC50; cited from earlier work
[11] = test system: Escherichia coli ATCC 10536; assay: Serial broth microdilution with agar sub-cultivation; format: cell-based; details: ATCC10536, aerial parts extracts, TTC detection, n.d. = growth inhibition not detected (0.18–11.36 mg/mL)
[12] = test system: S. aureus strains (MSSA and MRSA); assay: Serial broth microdilution, S. aureus strains taken together; format: cell-based; details: Staphylococcus aureus; reference standard; read-out: MIC, anti-staphylococcal activity
[13] = test system: Pseudomonas aeruginosa ATCC 27853; assay: Serial broth microdilution with agar sub-cultivation; format: cell-based; details: ATCC27853, aerial parts extracts, TTC detection, n.d. = growth inhibition not detected (0.36–22.73 mg/mL)
COX-1 = test system: COX-1; set-up: method as in PMID 11849848; details: cited from earlier work
[14] = test system: Staphylococcus aureus ATCC 6538; assay: Serial broth microdilution with agar sub-cultivation; format: cell-based; details: ATCC6538, aerial parts extracts, TTC detection
five MRSA strains = test system: five MRSA strains; set-up: method as in PMID 18404351; details: cited from earlier work
[15] = test system: Staphylococcus aureus ATCC 29213; assay: Serial broth microdilution with agar sub-cultivation; format: cell-based
E. faecalis = details: cited from earlier work
MDA-MB-231 = test system: MDA-MB-231; set-up: method as in PMID 34719192; details: cited from earlier work
E. coli = test system: E. coli; set-up: method as in doi:10.1016/j.sajb.2010.04.010; details: range given for both compounds; cited from earlier work
P. aeruginosa = details: cited from earlier work
COX-2 = test system: COX-2; set-up: method as in PMID 11849848; details: cited from earlier work
S. aureus = details: cited from earlier work
B. subtilis = test system: B. subtilis; set-up: method as in PMID 31737673; details: same ATCC strain as in the present study; cited from earlier work
[16] = test system: B. subtilis, B. cereus and S. aureus; set-up: method as in earlier work; details: cited from earlier work
KB cells = details: cited from earlier work
HL60 cells = details: cited from earlier work
[17] = test system: YMB-1 breast cancer cells; details: cited from earlier work
[18] = compounds from Origanum majorana leaves
[19] = same ATCC strain as in the present study

Structure (SMILES): O=c1cc(-c2ccc(O)cc2)oc2cc(O)c(O)c(O)c12 [6-hydroxyapigenin, 6-hydroxyapigenin (scutellarein)]
- IC50 (α-glucosidase; [18]): 12 µM

Structure (SMILES): O=c1cc(-c2ccc(O)c(O)c2)oc2cc(O[C@@H]3O[C@H](CO)[C@@H](O)[C@H](O)[C@H]3O)c(O)c(O)c12 [6-hydroxyluteolin 7-O-glucoside, 6-Hydroxyluteolin 7-O-glucoside]
- IC50 (α-glucosidase; [18]): 300 µM

Structure (SMILES): O=c1cc(-c2ccc(O)c(O)c2)oc2cc(O)c(O)c(O)c12 [6-hydroxyluteolin]
- IC50 (α-glucosidase; [18]): 10 µM

Structure (SMILES): O=C(O)c1cc(O)c(O)c(O)c1 [Gallic Acid, gallic acid]
- DPPH radical scavenging activity IC50 [1]: 0.64 µg/mL

Structure (SMILES): O=C(OCC1=CC(O)C2(O)C=COC(O[C@@H]3O[C@H](CO)[C@@H](O)[C@H](O)[C@H]3O)C12)c1ccccc1 (some centres unmarked) [Globularifolin, Globularifolin (10-O-Benzoylmonomelittoside)]
- IC50 [2]: 10 µM

Structure (SMILES): CCn1cc(C(=O)O)c(=O)c2cc(F)c(N3CCNCC3)cc21 [Norfloxacin, norfloxacin]
- growth inhibition zone [3]: 26.6 ± 0.9 mm
- growth inhibition zone [4]: 23.8 ± 0.8 mm
- growth inhibition zone [5]: 7.3 ± 0.5 mm
- growth inhibition zone [6]: 33.8 ± 0.8 mm
- growth inhibition zone [7]: 30.7 ± 2.8 mm
- growth inhibition zone [8]: 41.0 ± 0.0 mm
- growth inhibition zone [9]: 44.7 ± 1.0 mm

Structure (SMILES): Cc1c(C)c2c(c(C)c1O)CCC(C)(C(=O)O)O2 (centres unmarked) [Trolox]
- DPPH radical scavenging activity IC50 [1]: 2.71 µg/mL

Structure (SMILES): C[C@@H]1O[C@@H](O[C@@H]2[C@@H](O)[C@H](OCCc3ccc(O)c(O)c3)O[C@H](CO)[C@H]2OC(=O)/C=C/c2ccc(O)c(O)c2)[C@H](O)[C@H](O)[C@H]1O [Verbascoside, Verbascoside (Acteoside)]
- IC50 [10]: 58.1 µM
- MIC [11]: 227 µg/mL (≈ 364 µM)
- MIC [12]: 227 µg/mL (≈ 364 µM)
- MIC [13]: 227 µg/mL (≈ 364 µM)
- IC50 (COX-1): > 1000 µM
- MIC [14]: 227 µg/mL (≈ 364 µM)
- MIC against five MRSA strains (five MRSA strains): 64 to 256 µg/mL
- IC50 (α-glucosidase; isolated compounds of Clerodendrum bungei): 500 µM
- MIC ([15]; ATCC29213, aerial parts extracts, TTC detection): 227 µg/mL (≈ 364 µM)
- MBC ([15]; ATCC29213, agar sub-cultivation): 227 µg/mL (≈ 364 µM)
- MIC against E. faecalis (E. faecalis; range given for both compounds): 100 to 150 µg/mL
- IC50 (MDA-MB-231): 0.159 to 0.258 µM
- MIC against E. coli (E. coli): 100 to 250 µg/mL
- MIC against P. aeruginosa (P. aeruginosa; given for both compounds): 250 µg/mL (≈ 400 µM)
- IC50 (COX-2): 690 µM
- MIC, anti-staphylococcal activity (S. aureus): 60 µg/mL (≈ 96.1 µM)

Structure (SMILES): O=c1cc(-c2ccc(O)cc2)oc2cc(O)cc(O)c12 [apigenin, Apigenin]
- MIC against B. subtilis (B. subtilis): 8 µg/mL (≈ 29.6 µM)
- MIC against B. subtilis, B. cereus and S. aureus [16]: 30 to 80 µg/mL
- IC50 (α-glucosidase; [18]): > 500 µM
- MIC against E. faecalis (E. faecalis; [19]): 8 µg/mL (≈ 29.6 µM)
- MIC against P. aeruginosa (P. aeruginosa; [19]): 64 to 400 µg/mL
- inhibitory activity against S. aureus (S. aureus): no inhibitory activity was observed

Structure (SMILES): CC(=O)OCC1=C[C@@H]2OC(=O)C3=CO[C@@H](O[C@@H]4O[C@H](CO)[C@@H](O)[C@H](O)[C@H]4O)[C@H]1[C@@H]32 [asperuloside, Asperuloside]
- IC50 KB cells (KB cells): 104.2 µg/mL (≈ 251 µM)
- IC50 HL60 cells (HL60 cells): 11.0 µg/mL (≈ 26.5 µM)
- IC50 YMB-1 breast cancer cells [17]: 0.7 µg/mL (≈ 1.69 µM)

— paper PMC9146695, “Globularia alypum L. and Related Species: LC-MS Profiles and Antidiabetic, Antioxidant, Anti-Inflammatory, Antibacterial and Anticancer Potential” (Pharmaceuticals, 2022)
